# Measurements from patent US20040087606A1, “Shivering suppression during cooling to lower body temperature” (priority 2002, published 2004).
# Where “and” joins values, the source holds several entries; their conditions need not be identical. Equal values may be shown once.
# Key:
# Assay type in all cases: in vivo, human
# healthy subjects [1] = experiment: Phase 4: as Phase 3a, meperidine plus oral buspirone
# Protocol: (§1) Five contact pads are applied to the thighs, back and abdomen of each subjects, and actively cooled. Temperatures are measured in the same manner as in Phase 1 except that the rectal temperature probe is connected to a control module and the rectal temperature signal is used by the control module to adjust inlet water temperature via a feedback control algorithm to achieve a target core body temperature of 34.5° C.
# (§2) A single oral dose of acetaminophen (1000 mg), is administered within 20 minutes prior to treatment. A bolus of IV meperidine (Demerol®, 50-100 mg) is given within 5 minutes of the start of active cooling. Additional doses of meperidine are administered to maintain comfort and to prevent shivering. Active cooling and maintenance of hypothermia continues for five hours. As in the Phase 1, the subjects are actively re-warmed to a tympanic temperature of 36° C. prior to termination of the experiment. Shivering, comfort, oxyhemoglobin saturation, and arterial blood pressure are recorded as in Phase 1.
# Phase 4 proceeds as described for Phase 3a, except as noted. In addition to meperidine (Demerol®), subjects are also given an oral dose of 30-60 mg buspirone.
# healthy subjects [2] = experiment: Phase 5: as Phase 3a, meperidine plus IV ondansetron
# Protocol: as §1, §2
# Phase 5 proceeds as described for Phase 3a, except as noted. The temperature of water circulated to the contact pads is controlled to achieve a target core body temperature of 34.5° C. In addition to meperidine (Demerol®), subjects are also given an IV dose of 8 mg ondansetron (hydrochloride salt, Glaxo Wellcome).
# healthy subjects [3] = experiment: Phases 1 and 3a taken together: haemodynamics, comfort, respiratory compromise, nausea
# Protocol: (§3) Four contact pads are applied to the thighs and chest of each subject and each subject is rapidly cooled with an objective of reducing core body temperature to 34-35° C. Core body temperatures are measured at the tympanic membrane and the rectum. Mean skin-surface temperature is determined from the weighted average of calf, thigh, chest, and upper arm skin temperatures. Thermoregulatory vasoconstriction is evaluated using forearm minus fingertip skin-temperature gradients. Temperatures are measured using Mon-a-Therm™ themocouple probes connected to Mallinckrodt Model 6510 two-channel electronic thermometers having an accuracy near 0.1° C. (Mallinckrodt Anesthesia Products, St. Louis, Mo., U.S.A.). Temperatures are recorded before cooling is started (i.e., baseline) and subsequently at 15-minute intervals.
# (§4) Each of subjects 1-5 is administered a single dose of acetomiophen (1000 mg) within 20 minutes prior to treatment and is administered a bolus of intravenous (IV) meperidine (Demerol®, 25-75 mg) within 5 minutes of the start of cooling. Subjects also receive initial doses of chlorpromazine (Thorazine®12.5-25 mg, IV). Active cooling is initiated and the inlet water temperature is controlled to achieve a target tympanic temperature between 34° C. and 35° C. Additional doses of meperidine and/or chloropromazine are administered to maintain comfort and to prevent shivering. Active cooling and maintenance of hypothermia continues for up to five hours, after which subjects are actively re-warmed to a tympanic temperature of 36° C.
# (§5) The presence of shivering is noted by physical examination, electromyographic artifact on continuous electrocardiography (ECG), or by subject report. Overall thermal comfort is evaluated at 15-min intervals with a 100-mm-long visual analog scale (VAS) on which 0 mm defines the worst imaginable cold, 50 mm identifies thermal neutrality, and 100 mm indicates unbearable heat. A new, unmarked scale is used for each assessment. Heart rate and oxyhemoglobin saturation are monitored using ECG and pulse oximetry; arterial blood pressure is recorded oscillometrically at 15-minute intervals.
# as §1, §2
# healthy subjects [4] = experiment: Phase 1: induced mild hypothermia by contact-pad cooling with meperidine for shivering suppression
# Source text: (§6) Mild hypothermia is induced and maintained in healthy subjects for up to several hours. Each volunteer is cooled using contact pads (Arctic Sun Energy Transfer Pads™, Medivance, Inc., Louisville, Colo., U.S.A.). Contact pads are applied to contact the subjects, and water at a controlled temperature is delivered to and circulated through the contact pads to effect the controlled cooling of each volunteer.
# as §3, §4, §5
# healthy subjects [5] = experiment: Phase 3a: contact-pad cooling to target core temperature 34.5° C. with meperidine
# Source text: as §6, §1, §2
# [6] = Phase 5, individual subjects, meperidine plus IV ondansetron 8 mg
# [7] = Phase 5, mean ± SD, 4 subjects, meperidine plus ondansetron
# [8] = individual subjects, meperidine
# [9] = Phase 4, individual subjects, meperidine plus oral buspirone 30-60 mg
# [10] = Phase 4, mean ± SD, 4 subjects, meperidine plus buspirone
structure (smiles),measurement,setting,value
O=C1CC2(CCCC2)CC(=O)N1CCCCN1CCN(c2ncccn2)CC1 [buspirone],Effect on incidence of nausea,healthy subjects [1]; in vivo,did not reduce the incidence of nausea
CCOC(=O)C1(c2ccccc2)CCN(C)CC1 [meperidine],Attainment of mild hypothermia,healthy subjects [2]; Phase 5,attained in all subjects
same,Cooling rate to 35° C.,healthy subjects [2]; [6],1.5 ° C./hr and 1.4 ° C./hr and 1.6 ° C./hr and 1.9 ° C./hr
same,Nausea or Vomiting During Treatment,healthy subjects [2]; [6],None (2×) and Nausea post and Nausea and vomiting
same,Time to 35° C.,healthy subjects [2]; [6],80 min and 58 min and 88 min and 60 min
same,Total Meperidine Dose,"healthy subjects [2]; Phase 5, individual subjects, with IV ondansetron 8 mg",275 mg and 250 mg and 325 mg and 375 mg
same,Mean cooling rate to 35° C.,healthy subjects [2]; [7],1.6 ° C./hr and 1.6 ± .2 ° C./hr
same,Mean time to reach a tympanic temperature of 35.0° C.,healthy subjects [2]; [7],72 ± 15 min
same,Mean total dosage of meperidine,"healthy subjects [2]; Phase 5, mean ± SD, 4 subjects, with ondansetron",306 ± 55 mg
same,Withdrawal of a subject for adverse reaction to meperidine,"healthy subjects [2]; Phase 5, one of five enrolled, caused a facial rash",mild allergic reaction
same,Systolic blood pressure,"healthy subjects [3]; 180 min timepoint, baseline 122±13, p=0.042",140±20 mm Hg
same,Respiratory compromise,healthy subjects [3]; Phases 1 and 3a,no respiratory compromise is observed
same,Subjects in whom nausea is observed,"healthy subjects [3]; Phases 1 and 3a, all cases in Phase 3a",30%
same,Change in blood oxygenation compared with baseline,"healthy subjects [3]; all subjects, during cooling",no statistically significant change
same,Change in diastolic blood pressure compared with baseline,"healthy subjects [3]; all subjects, during cooling",no statistically significant change
same,Change in heart rate compared with baseline,"healthy subjects [3]; all subjects, during cooling",no statistically significant change
same,Attainment of mild hypothermia,healthy subjects [4]; Phase 1,attained in all subjects
same,Total Meperidine Dose,"healthy subjects [4]; Phase 1, individual subjects, given as needed to maintain comfort and prevent shivering, up to five hours",275 mg and 375 mg and 475 mg and 75 mg and 200 mg
same,Nausea or Vomiting During Treatment,"healthy subjects [4]; Phase 1, individual subjects, meperidine",Pruritis and None (4×)
same,Cooling rate to 35° C.,"healthy subjects [4]; Phase 1, individual subjects, meperidine for shivering suppression",1.4 ° C./hr and 1.0 ° C./hr and 1.5 ° C./hr and 2.6 ° C./hr and 1.2 ° C./hr
same,Time to 35° C.,"healthy subjects [4]; Phase 1, individual subjects, tympanic temperature, IV meperidine 25-75 mg bolus plus additional doses, acetaminophen 1000 mg, chlorpromazine in subjects 1 and 2",81 min and 105 min and 78 min and 41 min and 82 min
same,Mean cooling rate to 35° C.,"healthy subjects [4]; Phase 1, mean ± SD, 5 subjects",1.5±0.6 ° C./hr and 1.5 ± .6 ° C./hr
same,Mean time to reach a tympanic temperature of 35° C.,"healthy subjects [4]; Phase 1, mean ± SD, 5 subjects",77+23 min and 77 ± 23 min
same,Mean total dosage of meperidine,"healthy subjects [4]; Phase 1, mean ± SD, 5 subjects",280 ± 155 mg and 280 mg
same,Total Meperidine Dose,"healthy subjects [5]; individual subjects, as needed to maintain comfort and prevent shivering, five hours",400 mg and 500 mg and 350 mg (2×) and 250 mg
same,Cooling rate to 35° C.,healthy subjects [5]; [8],1.9 ° C./hr and .9 ° C./hr and 1.2 ° C./hr and 1.7 ° C./hr and 1.4 ° C./hr
same,Nausea or Vomiting During Treatment,healthy subjects [5]; [8],"Nausea end (2×) and None and Nausea early, and Nausea, and vomiting mid"
same,Time to 35° C.,"healthy subjects [5]; individual subjects, tympanic temperature, IV meperidine 50-100 mg bolus plus additional doses, acetaminophen 1000 mg",64 min and 180 min and 95 min and 56 min and 53 min
same,Mean cooling rate to 35° C.,"healthy subjects [5]; mean ± SD, 5 subjects",1.4±0.4 ° C./hr and 1.4 ± .4 ° C./hr
same,Mean time to reach a tympanic temperature of 35° C.,"healthy subjects [5]; mean ± SD, 5 subjects",90 ± 53 min
same,Mean total dosage of meperidine,"healthy subjects [5]; mean ± SD, 5 subjects",370 ± 91 mg and 370 mg
same,Cooling rate to 35° C.,healthy subjects [1]; [9],1.1 ° C./hr (2×) and 1.9 ° C./hr and 0.8 ° C./hr
same,Nausea or Vomiting During Treatment,healthy subjects [1]; [9],"Nausea early, and Vomiting end and None and Nausea mid and Nausea end"
same,Time to 35° C.,healthy subjects [1]; [9],105 min and 95 min and 63 min and 158 min
same,Total Meperidine Dose,"healthy subjects [1]; Phase 4, individual subjects, with oral buspirone 30-60 mg",250 mg (3×) and 400 mg
same,Mean cooling rate to 35° C.,healthy subjects [1]; [10],1.2 ± .5 ° C./hr
same,Mean time to 35° C.,healthy subjects [1]; [10],105 ± 39 min
same,Mean total meperidine dose,"healthy subjects [1]; Phase 4, mean ± SD, 4 subjects, with buspirone",288 ± 75 mg
Cc1nccn1CC1CCc2c(c3ccccc3n2C)C1=O (stereo not drawn) [ondansetron],Meperidine administration in Phase 5 relative to Phase 3a,"healthy subjects [2]; p=0.26, t-test, ondansetron 8 mg IV",trend toward less meperidine administration
